Source: ChEMBL document CHEMBL5465560, “Selectivity Literature for EUbOPEN Chemogenomic Library” (2024)
Each block holds one compound with its values, some of them ahead of it.

Key:
[1] = target: Focal adhesion kinase 1 (Homo sapiens, UniProt Q05397); experiment: Selectivity interaction (ActivX KiNativ screen (kinase selectivity in THP-1 cell lysates)) EUB0000639a PTK2; type: subcellular; details: lysate, at 5 µM
[2] = target: Ribosomal protein S6 kinase alpha-5 (Homo sapiens) (UniProt O75582); experiment: Selectivity interaction (ActivX KiNativ screen (kinase selectivity in THP-1 cell lysates)) EUB0000639a RPS6KA5; type: subcellular; details: lysate
Ribosomal protein S6 kinase alpha-5 (Homo sapiens), sequence (O75582 whole entry, looked up): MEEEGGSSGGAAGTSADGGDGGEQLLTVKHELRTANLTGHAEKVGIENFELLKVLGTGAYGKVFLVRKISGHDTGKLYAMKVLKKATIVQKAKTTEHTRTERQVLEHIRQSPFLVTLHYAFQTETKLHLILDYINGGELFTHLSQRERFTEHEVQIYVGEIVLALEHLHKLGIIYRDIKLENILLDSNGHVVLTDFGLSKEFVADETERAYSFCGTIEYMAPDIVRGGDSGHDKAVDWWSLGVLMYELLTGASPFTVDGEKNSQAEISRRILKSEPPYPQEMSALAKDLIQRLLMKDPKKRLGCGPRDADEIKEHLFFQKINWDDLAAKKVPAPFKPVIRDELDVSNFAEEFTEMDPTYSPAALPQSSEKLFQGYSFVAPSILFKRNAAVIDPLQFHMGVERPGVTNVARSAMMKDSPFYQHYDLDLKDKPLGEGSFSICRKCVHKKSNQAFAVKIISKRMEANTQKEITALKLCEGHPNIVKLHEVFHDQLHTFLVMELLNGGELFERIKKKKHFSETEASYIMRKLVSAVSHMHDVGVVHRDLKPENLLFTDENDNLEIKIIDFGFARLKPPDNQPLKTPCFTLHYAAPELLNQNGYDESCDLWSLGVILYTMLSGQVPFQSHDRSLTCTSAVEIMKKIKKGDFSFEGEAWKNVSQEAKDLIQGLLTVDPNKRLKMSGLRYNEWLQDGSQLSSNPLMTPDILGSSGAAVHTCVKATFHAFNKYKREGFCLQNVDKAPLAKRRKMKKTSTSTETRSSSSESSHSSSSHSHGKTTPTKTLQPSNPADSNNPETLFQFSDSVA

[3] = target: T1, Testis-specific serine/threonine-protein kinase 1 (Homo sapiens) (UniProt Q9BXA7); experiment: Selectivity interaction (KinomeScan (DiscoverX)) EUB0000045b TSSK1A
T1 sequence (whole entry): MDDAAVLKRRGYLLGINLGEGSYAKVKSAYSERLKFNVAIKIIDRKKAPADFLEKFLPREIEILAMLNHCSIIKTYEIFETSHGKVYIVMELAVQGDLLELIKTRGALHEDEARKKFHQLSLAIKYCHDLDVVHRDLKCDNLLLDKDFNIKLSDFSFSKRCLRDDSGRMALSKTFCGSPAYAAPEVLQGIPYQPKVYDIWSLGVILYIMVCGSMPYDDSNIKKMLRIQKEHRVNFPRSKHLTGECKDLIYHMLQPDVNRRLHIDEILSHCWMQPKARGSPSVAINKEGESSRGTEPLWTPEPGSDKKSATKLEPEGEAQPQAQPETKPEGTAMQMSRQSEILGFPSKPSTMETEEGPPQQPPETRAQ

[4] = target: T2, Serine/threonine-protein kinase haspin (Homo sapiens) (UniProt Q8TF76); experiment: Selectivity interaction (KinomeScan (DiscoverX)) EUB0000229b GSG2; details: at 10 µM
T2 sequence (whole entry): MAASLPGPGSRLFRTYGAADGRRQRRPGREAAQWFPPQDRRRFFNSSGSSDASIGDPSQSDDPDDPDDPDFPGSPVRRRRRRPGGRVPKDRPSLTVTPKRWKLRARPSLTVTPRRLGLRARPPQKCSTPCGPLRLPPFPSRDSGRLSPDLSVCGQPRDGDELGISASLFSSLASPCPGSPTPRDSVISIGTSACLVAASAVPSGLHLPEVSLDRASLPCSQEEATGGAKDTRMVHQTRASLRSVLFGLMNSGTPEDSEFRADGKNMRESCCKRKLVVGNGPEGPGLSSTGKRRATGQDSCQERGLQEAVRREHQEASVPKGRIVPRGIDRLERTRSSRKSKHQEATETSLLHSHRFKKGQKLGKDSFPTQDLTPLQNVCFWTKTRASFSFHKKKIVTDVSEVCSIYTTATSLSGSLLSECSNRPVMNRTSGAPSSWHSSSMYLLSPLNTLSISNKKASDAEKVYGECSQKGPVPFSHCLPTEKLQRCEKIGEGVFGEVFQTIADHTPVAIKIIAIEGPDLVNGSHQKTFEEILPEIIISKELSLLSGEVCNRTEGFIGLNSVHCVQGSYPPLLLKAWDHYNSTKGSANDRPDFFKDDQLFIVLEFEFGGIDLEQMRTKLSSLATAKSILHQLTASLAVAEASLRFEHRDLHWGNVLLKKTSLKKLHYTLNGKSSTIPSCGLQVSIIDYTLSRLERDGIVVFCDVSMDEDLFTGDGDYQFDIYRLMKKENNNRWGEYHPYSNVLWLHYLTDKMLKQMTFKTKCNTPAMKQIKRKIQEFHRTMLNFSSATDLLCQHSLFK

[5] = target: T3, Serine/threonine-protein kinase Nek1 (Homo sapiens) (UniProt Q96PY6); experiment: Selectivity interaction (KinomeScan (DiscoverX)) EUB0000092b NEK1; details: at 10 µM
T3 sequence (whole entry): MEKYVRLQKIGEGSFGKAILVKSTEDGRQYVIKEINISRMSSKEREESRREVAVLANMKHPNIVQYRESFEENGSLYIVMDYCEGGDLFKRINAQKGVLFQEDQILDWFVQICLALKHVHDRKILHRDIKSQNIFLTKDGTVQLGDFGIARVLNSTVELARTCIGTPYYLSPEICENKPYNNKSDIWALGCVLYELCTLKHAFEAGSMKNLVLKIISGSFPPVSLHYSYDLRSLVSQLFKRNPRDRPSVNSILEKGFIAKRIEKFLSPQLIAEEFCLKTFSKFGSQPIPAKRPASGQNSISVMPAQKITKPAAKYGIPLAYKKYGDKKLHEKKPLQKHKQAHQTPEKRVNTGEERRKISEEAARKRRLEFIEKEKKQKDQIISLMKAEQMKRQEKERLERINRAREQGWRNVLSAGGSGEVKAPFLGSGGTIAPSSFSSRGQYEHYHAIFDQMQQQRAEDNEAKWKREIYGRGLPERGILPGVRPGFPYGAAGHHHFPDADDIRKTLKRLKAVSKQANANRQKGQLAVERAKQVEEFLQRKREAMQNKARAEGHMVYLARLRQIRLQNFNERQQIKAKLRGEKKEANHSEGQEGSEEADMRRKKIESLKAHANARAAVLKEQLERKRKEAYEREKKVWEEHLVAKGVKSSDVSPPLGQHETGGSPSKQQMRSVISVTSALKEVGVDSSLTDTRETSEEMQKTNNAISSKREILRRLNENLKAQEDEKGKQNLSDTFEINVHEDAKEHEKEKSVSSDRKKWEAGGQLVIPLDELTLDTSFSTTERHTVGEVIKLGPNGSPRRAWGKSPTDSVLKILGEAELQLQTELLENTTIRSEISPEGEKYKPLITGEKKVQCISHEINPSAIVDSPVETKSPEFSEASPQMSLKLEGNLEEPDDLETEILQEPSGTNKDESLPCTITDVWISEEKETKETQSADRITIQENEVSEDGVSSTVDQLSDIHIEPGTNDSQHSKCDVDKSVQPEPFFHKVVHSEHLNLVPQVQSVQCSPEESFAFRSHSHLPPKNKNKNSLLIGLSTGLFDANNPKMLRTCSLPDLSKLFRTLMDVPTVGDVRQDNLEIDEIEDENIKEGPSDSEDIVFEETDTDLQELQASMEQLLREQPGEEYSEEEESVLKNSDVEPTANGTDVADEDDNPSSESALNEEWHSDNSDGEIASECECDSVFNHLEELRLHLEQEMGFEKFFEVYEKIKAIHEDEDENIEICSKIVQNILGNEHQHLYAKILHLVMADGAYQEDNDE

Focal adhesion kinase 1, sequence (Q05397 2-1052 limits assumed): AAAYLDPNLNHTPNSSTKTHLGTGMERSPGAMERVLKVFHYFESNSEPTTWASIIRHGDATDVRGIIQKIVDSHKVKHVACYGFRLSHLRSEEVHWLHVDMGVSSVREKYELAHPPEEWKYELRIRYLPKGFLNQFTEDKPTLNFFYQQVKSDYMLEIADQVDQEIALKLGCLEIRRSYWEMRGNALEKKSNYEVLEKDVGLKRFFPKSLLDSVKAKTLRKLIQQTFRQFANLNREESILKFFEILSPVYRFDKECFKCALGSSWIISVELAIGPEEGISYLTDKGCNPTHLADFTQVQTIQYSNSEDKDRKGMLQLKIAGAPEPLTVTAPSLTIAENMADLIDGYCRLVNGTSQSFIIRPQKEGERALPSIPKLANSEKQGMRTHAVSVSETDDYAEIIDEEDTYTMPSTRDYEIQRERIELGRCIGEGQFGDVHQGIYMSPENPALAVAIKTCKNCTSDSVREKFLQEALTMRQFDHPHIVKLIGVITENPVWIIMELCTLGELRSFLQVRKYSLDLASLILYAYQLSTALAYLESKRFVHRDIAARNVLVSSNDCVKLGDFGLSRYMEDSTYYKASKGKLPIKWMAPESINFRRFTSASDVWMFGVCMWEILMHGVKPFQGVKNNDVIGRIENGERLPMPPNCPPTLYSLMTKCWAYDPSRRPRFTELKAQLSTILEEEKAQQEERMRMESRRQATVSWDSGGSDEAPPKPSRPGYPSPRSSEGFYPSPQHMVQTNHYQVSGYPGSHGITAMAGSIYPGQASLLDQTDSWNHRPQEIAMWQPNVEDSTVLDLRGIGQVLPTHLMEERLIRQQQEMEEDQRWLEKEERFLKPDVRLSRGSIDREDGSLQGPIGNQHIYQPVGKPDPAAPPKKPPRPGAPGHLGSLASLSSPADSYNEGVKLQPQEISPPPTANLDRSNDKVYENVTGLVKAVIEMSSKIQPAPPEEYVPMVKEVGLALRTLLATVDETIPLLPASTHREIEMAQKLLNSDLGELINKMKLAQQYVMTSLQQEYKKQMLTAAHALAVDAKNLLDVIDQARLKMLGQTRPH

% of inhibition [1]: -9.4%
% of inhibition ([2]; at 0.01 µM): 2.2%
% of inhibition ([2]; at 0.04 µM): -1%
% of inhibition ([2]; at 0.2 µM): -6.1%
% of inhibition ([2]; at 1 µM): -9.7%
% of inhibition ([2]; at 5 µM): -27.5%
SMILES: CC[C@@H]1[C@H](F)C(=O)N[C@@H]1COc1nccc2cc(C(N)=O)c(OC)cc12 [ZIMLOVISERTIB]

SMILES: C=CC(=O)Nc1cc(-n2c(=O)ccc3cnc4ccc(-c5ccc(NS(C)(=O)=O)cc5)cc4c32)ccc1C
% of control ([3]; at 1 µM): 100%
% of control ([3]; at 10 µM): 74%

SMILES: COc1cc(N(C)c2ccnc3ccc(C(F)(F)F)cc23)cc(OC)c1OC
% binding [4]: 43%

SMILES: CCC(=O)N1CCN(c2ccc(-n3c(=O)ccc4cnc5ccc(-c6cnc7ccccc7c6)cc5c43)cc2C(F)(F)F)CC1
% of control [5]: 89%
